Data on two compounds can be found in patent publication US20100240746A1, “STEREOISOMERS OF TRICYCLODECAN-9-YL-XANTHOGENATE” (LUMAVITA AG, priority 2007, published 2010).

By IC50 is commonly meant the concentration needed to halve the response being measured.

Series [1] concerns phosphatidylcholine-specific phospholipase C (PC-PLC). The settings on record: Amtmann 1996; Muller-Decker 1989; cited from earlier work.
The test system of series [2] is Calu-6 cells. The experiment in a line: Cytotoxicity assay in Calu-6 cells (crystal violet). The class given is cell-based. To be noted: 48 hr. As to the method: (§1) Calu-6 cells and RITA cells were grown in DMEM cell culture medium containing 10% fetal calf serum in CO2 incubator under 5% CO2 at 37° C. with 100% humidity.
(§2) For cytotoxicity assay, Calu-6 cells were seeded in 96 well plates at a density of 3×10^6 cells per plate in the DMEM cell culture medium. The plates were incubated at 37° C. in the presence of 5% CO2 for 24 hr. The DMEM cell culture medium in the plates was exchanged with fresh DMEM cell culture medium containing test compounds at a series of concentrations. The plates were incubated at 37° C. in the presence of 5% CO2 for 48 hr. The plates were then washed with PBS, fixed with 3% formaldehyde solution containing 0.9% NaCl for 1 min, washed by water for 10 sec, and dried overnight. For detection, the plates were stained with crystal violet solution for 5 min at room temperature, washed 5 times with water, and dried at room temperature overnight. After adding ethanol/acetic acid (99:1, v/v, […]) to each well, the plates were measured at 595 nm using an ELISA reader. A dose response curve was obtained for each compound tested by plotting the mean values of the optical densities against compound concentration.

Series [3] concerns Herpes simplex virus type-2 (HSV-2). The experiment in a line: Inhibition of HSV-2 (plaque assay; Calu-6 infected, RITA cells for plaques). The format is cell-based. As to the method: as §1
(§3) For HSV-2 inhibition, Calu-6 cells were seeded in 96 well plates at a density of 3×10^6 cells per plate in the DMEM cell culture medium. The plates were incubated at 37° C. in the presence of 5% CO2 for 24 hr. The DMEM cell culture medium in the plates was removed and the cells were infected with Herpes simplex virus type-2 at 50 plaque forming units per well. After incubation at 37° C. for 60 min, test compounds in DMEM cell culture medium at a series of concentrations were added. The plates were incubated at 37° C. in the presence of 5% CO2 for 48 hr. The plates were frozen at −20° C. prior to further analysis. After thawing at room temperature, supernatants containing infectious virus particles were prepared by centrifuging the supernatant from each well at 18,000 g at 4° C. for 5 min. The supernatant was further diluted before assay.
RITA cells were seeded in 24 well Linbra plates at a density of 4×10^6 cells per plate in 2 mL of DMEM cell culture medium. The plates were incubated at 37° C. in the presence of 5% CO2 for 24 hr. After the removal of the cell culture medium, 0.1 mL of the diluted supernatants was added and the plates were incubated at 37 C for 1 hr. DMEM cell medium containing 10% fetal calf serum and 0.5% methyl cellulose was added and the plates were incubated at 37 for 48 hr. The plates were then washed with PBS, fixed with 3% formaldehyde solution containing 0.9% NaCl for 1 min, washed by water for 10 sec, and dried overnight. For detection, the plates were then stained with crystal violet solution for 5 min at room temperature, washed 5 times with water, and dried at room temperature overnight. The number of plaques was determined macroscopically. The number of plaques per well was then multiplied with the dilution factor. Dose response curves were obtained by plotting the number of plaques/0.1 mL against compound concentration. The therapeutic index was also calculated for each compound by dividing LD50 with IC50.

Series [4] deals with T1, phosphatidylcholine-specific phospholipase C (PC-PLC) (Bacillus cereus, UniProt P09598).
T1 construct: purchased Invitrogen
T1 sequence (P09598 39-283 limits assumed): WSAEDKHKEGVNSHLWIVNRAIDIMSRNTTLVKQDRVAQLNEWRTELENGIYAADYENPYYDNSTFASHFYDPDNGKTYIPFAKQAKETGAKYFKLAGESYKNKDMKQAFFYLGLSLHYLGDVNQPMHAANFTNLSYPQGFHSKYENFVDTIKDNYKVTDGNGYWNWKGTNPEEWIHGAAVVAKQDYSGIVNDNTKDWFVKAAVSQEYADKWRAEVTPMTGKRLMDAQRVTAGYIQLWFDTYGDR
The experiment in a line: Amplex Red phosphatidylcholine-specific phospholipase C (PC-PLC) inhibition assay. The format is biochemical, B. cereus. To be noted: 30 min at 37° C., triplicate. As to the method:
(§4) The inhibitory activities of optically active potassium salts of (+)- and (−)-O-exo/C-exo-tricyclo [5.2.1.0^2,6]-dec-9-yl-xanthic acid 1A ((+)- and (−)-enantiomers 1A) against phosphatidylcholine-specific phospholipase C were evaluated, together with D609 and potassium salt of racemic O-exo/C-exo xanthic acid 1A (racemic 1A), using Amplex Red phosphatidylcholine-specific phospholipase C(PC-PLC) assay kit, which was obtained from Invitrogen (Calsbad, Calif.). D609 was obtained from Sigma Aldrich.
(§5) An Amplex Red stock solution (˜20 mM), a working reaction buffer, and a horseradish peroxidase stock solution (200 U/mL), a H2O2 working solution (20 mM), a choline oxidate stock solution (20 U/mL), an alkaline phosphatase stock solution (400 U/mL), and a B. cereus PC-PLC stock solution (10 U/mL) were prepared according to the instruction of the assay kit. The stock solution (100 mg/mL) for each test compound was also prepared by dissolving the compound in water 2 hr prior to the start of the experiment.
(§6) A working Amplex Red/HRP/lecithin solution was prepared by adding 200 μL of Amplex Red reagent stock solution, 100 μL of HRP stock solution, 200 μL of alkaline phosphatase stock solution, 100 μL of choline oxidase stock solution, and 78 μL of the lecithin solution to […] of the working reaction buffer. PC-PLC solution (0.2 U/mL) was prepared by diluting the PC-PLC stock solution with the working reaction buffer to the desired concentration.
(§7) The test compound (25 μL) at a serious of concentrations was pipetted into a 96 well plate. For uninhibited PC-PLC controls and non-PC-PLC controls, 25 μL of water was added. After the addition of 50 μL of the Amplex Red/HRP/lecithin working solution, the reaction was initiated by adding 25 μL of PC-PLC solution to each well. To the non-PC-PLC controls, 25 μL of water was added instead of PC-PLC solution. The experiment was performed in triplicate. The reactions were protected from light. After incubated for 30 min at 37° C., the reactions were measured with a fluorescence microplate reader using excitation at 550 nm and emission detection at 590 nm. The fluorescent data obtained were corrected for background fluorescence by subtracting the values obtained from the non-PC-PLC controls.

Series [5] in a line: Cytotoxicity assay in Calu-6 cells. The class given is cell-based. The settings on record: human, 37° C., read-out: LD50. As to the method:
as §1, §2

The target of series [6] is T2, B. cereus PC-PLC (phosphatidylcholine-specific phospholipase C) (Bacillus cereus, UniProt P09598).
T2 construct: purchased Invitrogen
T2 sequence (P09598 39-283 limits assumed): as above
The experiment in a line: Inhibition of phosphatidylcholine-specific phospholipase C (Amplex Red PC-PLC assay kit). The format is biochemical. As to the method: as §4, §5, §6
as §7, with “To the non-PC-PLC controls, 25 μL of water was added instead of PC-PLC solution. The experiment was performed in triplicate. The reactions were protected from light.” left out

The test system of series [7] is bovine papilloma virus type I (BPV-1)-transformed HEF (HEF-BPV). The experiment in a line: Inhibition of bovine papilloma virus, BPV-infected hamster embryo fibroblasts (HEF) cell proliferation assay. The format is cell-based. The settings on record: Bos taurus papillomavirus 1; HEF-BPV, 72 hr, 37° C., pH 6.8; read-out: IC50. As to the method:
(§8) Briefly, hamster embryo fibroblasts and bovine papilloma virus type I (BPV-1)-transformed HEF (HEF-BPV) were grown in Eagle's basal medium. […] and HEF cells were seeded in 96-well plates at a density of 0.5×10^6 cells per plate in DMEM cell culture medium containing 10% fetal calf serum at pH 6.8. The plates were then incubated in the presence of 5% CO2 in 100% humidity at 37° C. After 6 hr, the cell culture medium in the plates was exchanged with fresh DMEM cell culture medium containing test compounds at a series of concentrations. The plates were incubated at 37° C. for additional 72 hr. Cells in the plates were then washed with PBS, fixed with 3% formaldehyde solution containing 0.9% NaCl for 1 min, washed by water for 10 sec, and dried overnight. For detection, the plates were stained with crystal violet solution for 5 min at room temperature, washed 5 times with water, and dried at room temperature overnight. After adding ethanol/acetic acid (99:1, v/v, […]) to each well, the plates were measured at 595 nm using an ELISA reader.

Series [8] has the same test system. The experiment in a line: BPV-infected hamster embryo fibroblasts (HEF) cell proliferation assay. To be noted: 72 hr incubation. The class given is cell-based. As to the method:
as §8

The test system of series [9] is herpes simplex virus type 2. Description: HSV-2 inhibition in Calu-6 cells, plaque titration on RITA cells. The class given is cell-based. To be noted: Human alphaherpesvirus 2, Calu-6; 48 hr, 50 plaque forming units per well. As to the method: as §1, §3
RITA cells were seeded in 24 well Linbra plates at a density of 4×10^6 cells per plate in 2 mL of DMEM cell culture medium. The plates were incubated at 37° C. in the presence of 5% CO2 for 24 hr. […] The number of plaques was determined macroscopically. […] The therapeutic index was also calculated for each compound by dividing LD50 with IC50.

≈ marks a conversion by molar mass, not a printed value. Where two headings read alike, the source gives them in different places.

Regarding `S=C(S)OC1CC2CC1C1CCCC21` (stereo not drawn) [Compound D609, tricyclodecan-9-yl-xanthogenate], in [1], the “inhibition of phosphatidylcholine-specific phospholipase C” value is listed as “specific inhibitor”. Further, in series [2], the LD50 worked out at 105.18 ± 21.97 µg/mL. For the same compound, the half-maximal inhibitory concentration (IC50) in series [3] (Human alphaherpesvirus 2, Calu-6 cells, 48 hr, 50 plaque forming units per well, read-out: IC50) was 30.2 ± 6.77 µg/mL (≈ 132 µM); in series [4], 20.49 ± 1.99 µg/mL; in series [6], 89.7 µM; in [7], 21.6 ± 1.85 µg/mL (≈ 94.8 µM). Moreover, the “Therapeutic Index” value in series [3] (LD50 (Calu-6) divided by IC50 (HSV-2), 2880 min) came out at 3.5. The CC50 at 48 h in [5] was 105 ± 22 µg/mL (≈ 461 µM).

For `S=C(S)O[C@@H]1C[C@@H]2C[C@H]1[C@H]1CCC[C@@H]21` (racemic) [Racemic 1A, racemic O-exo/C-exo xanthic acid 1A, reference compound], the IC50 is 14.55 ± 0.07 µg/mL (≈ 63.7 µM) in [8], 44 µM in series [4] (read-out: IC50 (converted)) and 17.2 ± 5.95 µg/mL (≈ 75.2 µM) in series [9]. For the same compound, the LD50 in series [2] came to 96.93 ± 7.12 µg/mL.
